# In US7323456B2, “Carboxylic acid derivatives compounds and agents comprising the compounds as active ingredient” (Ono Pharmaceutical Co., Ltd., priority 2001, dated 2008):
# Legend:
# human PPAR α = target: T1, human PPAR α (Homo sapiens, UniProt Q07869); test: Luciferase assay of PPAR α agonistic activity (Gal4-PPAR chimeric receptor, CV-1 cells); format: cell-based; details: compound 10 μM, luciferase activity of carbacyclin (10 μM) defined as 1.0, 42 hours
# T1 construct: expressed in transfected cells; host or cells: CV-1 cells
# T1 sequence (Q07869 167-468): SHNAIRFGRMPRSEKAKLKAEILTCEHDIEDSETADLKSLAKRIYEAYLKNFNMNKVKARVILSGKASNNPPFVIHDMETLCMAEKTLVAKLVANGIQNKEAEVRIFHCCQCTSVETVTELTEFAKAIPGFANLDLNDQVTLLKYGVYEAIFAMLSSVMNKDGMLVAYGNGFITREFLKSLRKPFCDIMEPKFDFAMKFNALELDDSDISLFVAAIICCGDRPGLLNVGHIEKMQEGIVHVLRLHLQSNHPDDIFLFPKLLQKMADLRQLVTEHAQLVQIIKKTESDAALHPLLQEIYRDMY
# human PPAR γ = target: T2, human PPAR γ (Homo sapiens, UniProt P37231); test: Luciferase assay of PPAR γ agonistic activity (Gal4-PPAR chimeric receptor, CV-1 cells); format: cell-based; details: compound 10 μM, luciferase activity of troglitazone (10 μM) defined as 1.0, 42 hours
# T2 construct: expressed in transfected cells; host or cells: CV-1 cells
# T2 sequence (P37231 204-505): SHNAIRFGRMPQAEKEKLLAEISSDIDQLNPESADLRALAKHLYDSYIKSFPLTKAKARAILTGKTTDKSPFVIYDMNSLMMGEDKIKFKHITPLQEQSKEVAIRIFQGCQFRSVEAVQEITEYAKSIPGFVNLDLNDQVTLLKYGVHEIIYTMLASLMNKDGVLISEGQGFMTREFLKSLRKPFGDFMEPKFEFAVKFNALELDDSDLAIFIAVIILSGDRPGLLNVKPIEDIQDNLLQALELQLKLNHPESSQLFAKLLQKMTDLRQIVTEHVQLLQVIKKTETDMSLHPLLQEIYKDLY
compound,measurement,setting,value
"C=CCN(CC(=O)O)Cc1cccc(OCCc2nc(-c3ccc(N4CCCCCC4)nc3)oc2C)c1 [Example 2, 2-(N-allyl-N-(3-(2-(2-(6-(perhydroazepin-1-yl)pyridin-3-yl)-5-methyloxazol-4-yl)ethoxy)benzyl)amino)acetic acid]",Relative Activity to a positive control compound (carbacyclin = 1),human PPAR α,0.9
same,Relative Activity to a positive control compound (troglitazone = 1),human PPAR γ,11.5
